What was measured:
[1] = test system: neuronal cells; test: Neuro-protective activity, MTT assay, glutamate-induced death; type: cell-based; conditions: FIG. 3; for neuro-protective activity on the death of neuronal cells caused by glutamate: MTT assay, pre-treatment before glutamate; for viability of the cells: neuronal cells, pre-treatment with compound then glutamate, MTT
[2] = test system: cell production of interleukin-1 (IL-1α) in human keratinocytes stimulated with TNF-α; test: Anti-inflammatory activity: IL-1α production in keratinocytes stimulated with TNF-α; type: cell-based; conditions: human keratinocytes pretreated 24 hours with 10 μM solution, then TNF-α; negative control DMSO; FIG. 1A
Experimental: (§1) The cells (human keratinocytes acquired from Life Technologies) have been pretreated for 24 hours with 1A or 1B and subsequently stimulated with cytokines, otherwise referred to as Tumor Necrosis Factor, TNF-α, in order to mimic an inflammatory process.
TNF-α induces inflammation in the cells treated, that is to say, the cell production of interleukin-1 (IL-1α).

[3] = Photochemiluminescence antioxidant test (Photochem, luminol); conditions: superoxide radical, FIG. 2
Experimental: For the study of the antioxidant activity, use was made of a photochemiluminescence test that allows evaluating the antioxidant capacity of the tested molecules with respect to the superoxide radical (O2^−); the latter is photochemically generated by means of UV radiations. The marker used is luminol, a molecule that is capable of emitting chemiluminescence when it is oxidized by free radicals; such emission of light is then measured by means of a suitable instrument (Analityk Jena AG: Photochem®—Antioxidants and Free Radicals). The presence of antioxidant substances in the reaction admixture deactivates the radical species by inhibiting the emission of chemiluminescence. The analysis is very rapid and sensitive. […]
Since the antioxidant activity cannot be measured in absolute terms, the common practice is to compare the activity of a compound with that of molecules having an antioxidant capacity that is already known, such as, for example, tocopherol (otherwise known as vitamin E). By comparing the recorded values with the measurements relating to the standard reference molecules ([…]), the antioxidant capacity of the product being examined is obtained.

[4] = test system: IL-1α gene expression in human keratinocytes; test: Real-time PCR quantification of gene expression in TNF-α stimulated keratinocytes; type: cell-based; conditions: keratinocytes pre-treated with compound, then TNF-α; FIG. 1B
Experimental: as §1
The cell response has also been set out by means of real-time PCR measurements, which are intended to quantify the gene expression (the production of IL-1α is an activity that is codified by specific genes). In FIG. 1B, the so-called “control” is the response of the non-stimulated cells (absence of inflammatory process), “TNF-α” is the response of the cells stimulated with cytokine, while “1A+TNF-α” and “1B+TNF-α” are the responses obtained with the cells pre-treated with 1A and 1B, respectively.

| Structure (SMILES) | neuro-protective activity on the death of neuronal cells caused by glutamate [1] | viability of the cells [1] [%] | cell production of IL-1α [2] | moles having the antioxidant activity of 1 mole of ascorbic acid [3] [mol] | gene expression (real-time PCR) [4] |
| --- | --- | --- | --- | --- | --- |
| Cc1ccc(O)c2c1CCC1C3CC[C@](O)(C(=O)CO)[C@@]3(C)CC(=O)[C@@]21O (stereo partly shown) [1A] | have a neuro-protective activity | ~80 | comparable with that of the negative control | 1.09 | absence of gene expression |
| Cc1ccc(O)c2c1CCC1C3CC[C@](O)(C(O)CO)[C@@]3(C)CC(=O)[C@@]21O (stereo partly shown) [1B] | have a neuro-protective activity | ~80 | comparable with that of the negative control | 1.18 | absence of gene expression |

Reference: US20200199170A1, “COMPOUNDS HAVING ANTI-INFLAMMATORY AND ANTI-OXIDANT ACTIVITY” (UNIVERSITÀ DEGLI STUDI DI FERRARA, priority 2015, published 2020)
